In ChEMBL document CHEMBL3045236, “Conventional and microwave techniques for synthesis and antimicrobial studies of novel 1-[2-(2-chloro(3-quinolyl))-5-(4-nitrophenyl)-(1,3,4-oxadiazolin-3-yl)]-3-(aryl)prop-2-en-1-ones” (2012):
Values after ≈ are worked out from the molar mass of the structure shown.

Experiments:
Type in all cases: functional
Escherichia coli = experiment: Antimicrobial activity against Escherichia coli MTCC 443 after 24 and 48 hr by serial broth dilution method
Candida albicans = experiment: Antimicrobial activity against Candida albicans MTCC 227
Aspergillus niger = experiment: Antimicrobial activity against Aspergillus niger MTCC 282
Staphylococcus aureus = experiment: Antimicrobial activity against Staphylococcus aureus MTCC 96 after 24 and 48 hr by serial broth dilution method
Pseudomonas aeruginosa = experiment: Antimicrobial activity against Pseudomonas aeruginosa MTCC 1688 after 24 and 48 hr by serial broth dilution method
Streptococcus pyogenes = experiment: Antimicrobial activity against Streptococcus pyogenes MTCC 442 after 24 and 48 hr by serial broth dilution method
Aspergillus clavatus = experiment: Antimicrobial activity against Aspergillus clavatus MTCC 1323

Row | SMILES | MIC (Escherichia coli) [µg/mL] | MIC (Candida albicans) [µg/mL] | MIC (Aspergillus niger) [µg/mL] | MIC (Staphylococcus aureus) [µg/mL] | MIC (Pseudomonas aeruginosa) [µg/mL] | MIC (Streptococcus pyogenes) [µg/mL] | MIC (Aspergillus clavatus) [µg/mL]
1 | COc1cc(/C=C/C(=O)N2N=C(c3ccc([N+](=O)[O-])cc3)OC2c2cc3ccccc3nc2Cl)cc(OC)c1OC (stereo unspecified) | 200 (≈ 348 µM) | 100 (≈ 174 µM) | 100 (≈ 174 µM) | 500 (≈ 870 µM) | 200 (≈ 348 µM) | 500 (≈ 870 µM) | 100 (≈ 174 µM)
2 | O=C(/C=C/c1ccccc1Cl)N1N=C(c2ccc([N+](=O)[O-])cc2)OC1c1cc2ccccc2nc1Cl (stereo unspecified) | 500 (≈ 963 µM) | 250 (≈ 481 µM) | 500 (≈ 963 µM) | 500 (≈ 963 µM) | 500 (≈ 963 µM) | 500 (≈ 963 µM) | 500 (≈ 963 µM)
3 | O=C(/C=C/c1ccccc1[N+](=O)[O-])N1N=C(c2ccc([N+](=O)[O-])cc2)OC1c1cc2ccccc2nc1Cl (stereo unspecified) | 50 (≈ 94.4 µM) | 500 (≈ 944 µM) | 500 (≈ 944 µM) | 500 (≈ 944 µM) | 50 (≈ 94.4 µM) | 200 (≈ 377 µM) | 100 (≈ 189 µM)
4 | O=C(/C=C/c1ccc([N+](=O)[O-])cc1)N1N=C(c2ccc([N+](=O)[O-])cc2)OC1c1cc2ccccc2nc1Cl (stereo unspecified) | 100 (≈ 189 µM) | 500 (≈ 944 µM) | 1000 (≈ 1890 µM) | 100 (≈ 189 µM) | 500 (≈ 944 µM) | 500 (≈ 944 µM) | 100 (≈ 189 µM)
5 | CC1(C)S[C@@H]2[C@H](NC(=O)[C@H](N)c3ccccc3)C(=O)N2[C@H]1C(=O)O [AMPICILLIN] | 100 (≈ 286 µM) |  |  | 250 (≈ 715 µM) | 100 (≈ 286 µM) | 100 (≈ 286 µM) | 
6 | COC1=CC(=O)C[C@@H](C)[C@]12Oc1c(Cl)c(OC)cc(OC)c1C2=O [GRISEOFULVIN] |  | 500 (≈ 1420 µM) | 100 (≈ 283 µM) |  |  |  | 100 (≈ 283 µM)

The remaining lines, values ahead:

Row | MIC (Escherichia coli) [µg/mL] | MIC (Candida albicans) [µg/mL] | MIC (Aspergillus niger) [µg/mL] | MIC (Staphylococcus aureus) [µg/mL] | MIC (Pseudomonas aeruginosa) [µg/mL] | MIC (Streptococcus pyogenes) [µg/mL] | MIC (Aspergillus clavatus) [µg/mL] | SMILES
7 | 200 (≈ 401 µM) | 250 (≈ 501 µM) | 100 (≈ 200 µM) | 200 (≈ 401 µM) | 100 (≈ 200 µM) | 250 (≈ 501 µM) | 1000 (≈ 2000 µM) | Cc1ccc(/C=C/C(=O)N2N=C(c3ccc([N+](=O)[O-])cc3)OC2c2cc3ccccc3nc2Cl)cc1 (stereo unspecified)
8 | 100 (≈ 194 µM) | 500 (≈ 971 µM) | 1000 (≈ 1940 µM) | 100 (≈ 194 µM) | 500 (≈ 971 µM) | 100 (≈ 194 µM) | 100 (≈ 194 µM) | COc1ccc(/C=C/C(=O)N2N=C(c3ccc([N+](=O)[O-])cc3)OC2c2cc3ccccc3nc2Cl)cc1 (stereo unspecified)
9 | 100 (≈ 193 µM) | 100 (≈ 193 µM) | 100 (≈ 193 µM) | 100 (≈ 193 µM) | 200 (≈ 385 µM) | 100 (≈ 193 µM) | 500 (≈ 963 µM) | O=C(/C=C/c1cccc(Cl)c1)N1N=C(c2ccc([N+](=O)[O-])cc2)OC1c1cc2ccccc2nc1Cl (stereo unspecified)
10 | 200 (≈ 385 µM) | 100 (≈ 193 µM) | 200 (≈ 385 µM) | 1000 (≈ 1930 µM) | 100 (≈ 193 µM) | 500 (≈ 963 µM) | 1000 (≈ 1930 µM) | O=C(/C=C/c1ccc(Cl)cc1)N1N=C(c2ccc([N+](=O)[O-])cc2)OC1c1cc2ccccc2nc1Cl (stereo unspecified)
11 | 1000 (≈ 1890 µM) | 100 (≈ 189 µM) | 100 (≈ 189 µM) | 500 (≈ 944 µM) | 500 (≈ 944 µM) | 100 (≈ 189 µM) | 500 (≈ 944 µM) | O=C(/C=C/c1cccc([N+](=O)[O-])c1)N1N=C(c2ccc([N+](=O)[O-])cc2)OC1c1cc2ccccc2nc1Cl (stereo unspecified)
12 | 500 (≈ 998 µM) | 1000 (≈ 2000 µM) | 500 (≈ 998 µM) | 500 (≈ 998 µM) | 250 (≈ 499 µM) | 250 (≈ 499 µM) | 500 (≈ 998 µM) | O=C(/C=C/c1ccccc1O)N1N=C(c2ccc([N+](=O)[O-])cc2)OC1c1cc2ccccc2nc1Cl (stereo unspecified)
13 | 25 (≈ 49.9 µM) | 500 (≈ 998 µM) | 200 (≈ 399 µM) | 200 (≈ 399 µM) | 50 (≈ 99.8 µM) | 100 (≈ 200 µM) | 100 (≈ 200 µM) | O=C(/C=C/c1cccc(O)c1)N1N=C(c2ccc([N+](=O)[O-])cc2)OC1c1cc2ccccc2nc1Cl (stereo unspecified)
14 | 250 (≈ 499 µM) | 500 (≈ 998 µM) | 100 (≈ 200 µM) | 100 (≈ 200 µM) | 50 (≈ 99.8 µM) | 500 (≈ 998 µM) | 500 (≈ 998 µM) | O=C(/C=C/c1ccc(O)cc1)N1N=C(c2ccc([N+](=O)[O-])cc2)OC1c1cc2ccccc2nc1Cl (stereo unspecified)
